As a reminder, the MIC is the least concentration at which growth counts as inhibited. A lower MIC goes with greater potency.

The source of these data is patent US5840684A, “Glycopeptide antibiotic derivatives” (Eli Lilly and Company, priority 1995, dated 1998).

Structures are written as SMILES. Values after ≈ are worked out from the molar mass of the structure shown.

The test system of assay [1] is Enterococcus gallinarum 245. Briefly: broth micro-dilution MIC. Conditions: Enterococcus gallinarum 245. The class given is cell-based. Here is the method: (§1) The formula I compounds have in vitro and in vivo activity against Gram-positive pathogenic bacteria. The MIC's were determined using a standard broth micro-dilution assay.
Assay [2] concerns Staphylococcus haemolyticus 415. Briefly: broth micro-dilution MIC. The class given is cell-based. Here is the method:
as §1
In general terms: Broth dilution looks for growth in wells or tubes with falling amounts of substance.

Another assay concerns Entercoccus faecium 2041. The experiment in a line: broth micro-dilution MIC. The class given is cell-based. Conditions: Entercoccus faecium 2041. Here is the method:
as §1

In assay [3] the test system is Staphylococcus haemolyticus 105. Briefly: broth micro-dilution MIC. The class given is cell-based. The method, then:
as §1

A further assay relates to Entercoccus faecium 180. Briefly: broth micro-dilution MIC. Conditions: Entercoccus faecium 180. It counts as cell-based. Here is the method: as §1
Assay [4] deals with Streptococcus pneumoniae P1. The experiment in a line: broth micro-dilution MIC. It counts as cell-based. Here is the method: as §1
Assay [5] deals with vancomycin-resistant enterococci. Briefly: broth micro-dilution, mean geometric MIC. The class given is cell-based, Enterococcus faecium and Enterococcus faecalis. Conditions: enterococci, 24-hour incubation.
Assay [6] concerns Entercoccus faecium 180-1. The experiment in a line: broth micro-dilution MIC. The class given is cell-based. The method, then:
(§2) The MIC's were determined using a standard broth micro-dilution assay.

Another assay deals with Entercoccus faecium 276. The experiment in a line: broth micro-dilution MIC. It counts as cell-based. The method, then: as §2
Assay [7] concerns Staphylococcus aureus 447. The experiment in a line: broth micro-dilution MIC. It counts as cell-based. The method, then:
as §2

Assay [8] has as its system Staphylococcus aureus 489. Briefly: broth micro-dilution MIC. The class given is cell-based. The method, then:
as §2

Assay [9] has as its system Staphylococcus aureus SA1199. The experiment in a line: broth micro-dilution MIC. It counts as cell-based. Here is the method: as §2
Assay [10] deals with Streptococcus pyogenes C203. Briefly: broth micro-dilution MIC. The class given is cell-based. The method, then:
as §2

Assay [11] concerns vancomycin-susceptible enterococci. The experiment in a line: broth micro-dilution, mean geometric MIC. It counts as cell-based, Enterococcus faecium and Enterococcus faecalis. The note with it: enterococci, 24-hour incubation.
For assay [12], the system named is Staphylococcus aureus SA1199B. The class given is cell-based. The method, then: as §2
Assay [13] has as its system Staphylococcus aureus S13E. The class given is cell-based. The method, then:
as §2

Assay [14] deals with Staphylococcus epidermidis 270. The experiment in a line: broth micro-dilution MIC. The class given is cell-based. The method, then: as §1
Assay [15] concerns Staphylococcus aureus X778. The experiment in a line: broth micro-dilution MIC. The class given is cell-based. The method, then: as §2
The test system of assay [16] is Staphylococcus aureus X400. The experiment in a line: broth micro-dilution MIC. The class given is cell-based. The method, then: as §2
Assay [17] relates to Staphylococcus aureus 446. The experiment in a line: broth micro-dilution MIC. The class given is cell-based. Here is the method: as §2
The subject of assay [18] is Staphylococcus aureus SA1199A. The experiment in a line: broth micro-dilution MIC. It counts as cell-based. The method, then: as §2

Turning to `CNC(CC(C)C)C(=O)NC1C(=O)NC(CC(N)=O)C(=O)NC2C(=O)NC3C(=O)NC(C(=O)NC(C(=O)O)c4cc(O)cc(O)c4-c4cc3ccc4O)C(OC3CC(C)(N)C(O)C(C)O3)c3ccc(c(Cl)c3)Oc3cc2cc(c3OC2OC(CO)C(O)C(O)C2OC2CC(C)(NCc3ccc(C)c(C)c3)C(O)C(C)O2)Oc2ccc(cc2Cl)C1O` (stereo not drawn) [Compound 76], the minimum inhibitory concentration (MIC) in [1] is 4 µg/mL (≈ 2.34 µM); in assay [2], 4 µg/mL (≈ 2.34 µM); against Entercoccus faecium 2041, no more than 0.06 µg/mL; in [3], 2 µg/mL (≈ 1.17 µM); in the assay with Entercoccus faecium 180 it was 0.5 µg/mL (≈ 0.292 µM); in [4] it was no more than 0.06 µg/mL. In addition, the MIC in assay [6] was no more than 0.06 µg/mL; in the assay with Entercoccus faecium 276, no more than 0.06 µg/mL; in assay [7], 0.5 µg/mL (≈ 0.292 µM); in assay [8] it was no more than 0.06 µg/mL; in [9], no more than 0.06 µg/mL; in assay [10], no more than 0.06 µg/mL. The “mean geometric MIC, Vancomycin Resistant Strains” value in assay [5] was 8.0 µg/mL.

As to `CNC(CC(C)C)C(=O)NC1C(=O)NC(CC(N)=O)C(=O)NC2C(=O)NC3C(=O)NC(C(=O)NC(C(=O)O)c4cc(O)cc(O)c4-c4cc3ccc4O)C(OC3CC(C)(N)C(O)C(C)O3)c3ccc(c(Cl)c3)Oc3cc2cc(c3OC2OC(CO)C(O)C(O)C2OC2CC(C)(NCc3ccc(Nc4ccccc4)cc3)C(O)C(C)O2)Oc2ccc(cc2Cl)C1O` (stereo not drawn) [Compound 160], the “mean geometric MIC, Vancomycin Sensitive Strains” value in assay [11] is 0.22 µg/mL. Moreover, the MIC in assay [12] is no more than 0.06 µg/mL; in [13], 1 µg/mL (≈ 0.564 µM); in assay [14], 1 µg/mL (≈ 0.564 µM); in [1], 8 µg/mL (≈ 4.51 µM); in [2] it was 8 µg/mL (≈ 4.51 µM); with Entercoccus faecium 2041, no more than 0.06 µg/mL. Further, the minimum inhibitory concentration (MIC) in assay [3] was 8 µg/mL (≈ 4.51 µM); against Entercoccus faecium 180, 0.5 µg/mL (≈ 0.282 µM); in assay [4], no more than 0.06 µg/mL; in [6] it was no more than 0.06 µg/mL; with Entercoccus faecium 276, 2 µg/mL (≈ 1.13 µM); in assay [7] it was 1 µg/mL (≈ 0.564 µM). The MIC in [15] is 4 µg/mL (≈ 2.26 µM); in assay [8] it was 0.21 µg/mL (≈ 0.118 µM); in assay [10], no more than 0.06 µg/mL; in assay [16] it was 4 µg/mL (≈ 2.26 µM); in assay [17], 2 µg/mL (≈ 1.13 µM). Moreover, in [5], the “mean geometric MIC, Vancomycin Resistant Strains” value came to 9.5 µg/mL.

In the case of `CNC(CC(C)C)C(=O)NC1C(=O)NC(CC(N)=O)C(=O)NC2C(=O)NC3C(=O)NC(C(=O)NC(C(=O)O)c4cc(O)cc(O)c4-c4cc3ccc4O)C(OC3CC(C)(N)C(O)C(C)O3)c3ccc(c(Cl)c3)Oc3cc2cc(c3OC2OC(CO)C(O)C(O)C2OC2CC(C)(NCC3CCC(COCc4ccccc4)CC3)C(O)C(C)O2)Oc2ccc(cc2Cl)C1O` (stereo not drawn) [Compound 239], in assay [11], the “mean geometric MIC, Vancomycin Sensitive Strains” value came to 0.095 µg/mL. Besides, the minimum inhibitory concentration (MIC) in assay [12] is 0.5 µg/mL (≈ 0.276 µM); in assay [13] it was 0.5 µg/mL (≈ 0.276 µM); in assay [1], 1 µg/mL (≈ 0.553 µM); in assay [2], 1 µg/mL (≈ 0.553 µM); in the assay with Entercoccus faecium 2041 it was no more than 0.06 µg/mL; in assay [3], 1 µg/mL (≈ 0.553 µM). The MIC was no more than 0.06 µg/mL against Entercoccus faecium 180; no more than 0.06 µg/mL in [4]; no more than 0.06 µg/mL in assay [6]; 0.5 µg/mL (≈ 0.276 µM) in [7]; 0.5 µg/mL (≈ 0.276 µM) in assay [8]; no more than 0.06 µg/mL in assay [18]. Besides, the MIC in assay [9] was 0.5 µg/mL (≈ 0.276 µM); in assay [17], 1 µg/mL (≈ 0.553 µM). For the same compound, in assay [5], the “mean geometric MIC, Vancomycin Resistant Strains” value was 2.8 µg/mL.
